Assay results as given in patent US20260000655A1, “PHARMACEUTICAL COMPOSITION FOR USE IN PREVENTION OR TREATMENT OF LIFESTYLE-RELATED DISEASE” (priority 2022, published 2026).

Columns and labels:
[1] = system: high-fat diet-induced obesity model mice; experiment: Sirius Red staining and collagen amount in mouse tissue; format: in vivo; conditions: HPH-15 10 mg/kg or 100 mg/kg, metformin 300 mg/kg, orally 28 days, Western blotting
Experimental: High-fat diet-induced obesity model mice were prepared in the same manner as in Example 7. Then, HPH-15 (10 mg/kg or 100 mg/kg, […]) dissolved in olive oil or metformin (300 mg/kg, […]) was orally administered once a day for 28 days. Olive oil alone was administered as a control. After 28 days of administration of each, the liver and the epididymal fat of the high-fat diet-induced obesity model mice were stained with Sirius Red and observed using a microscope.
Further, high-fat diet-induced obesity model mice were prepared in the same manner as in Example 7. Then, HPH-15 (10 mg/kg or 100 mg/kg, […]) dissolved in olive oil or metformin (300 mg/kg, […]) was orally administered once a day for 28 days. Olive oil alone was administered as a control. After 28 days of administration of each, equal amounts (50 mg) of tissue pieces were collected from the liver and epididymal adipose tissues of the high-fat diet-induced obesity model mice, transferred to 1.5 mL Eppendorf tubes, and washed twice with PBS. After washing, the tissue pieces were transferred to BIOMASHER II, […] of RIPA buffer was added, and the tissue pieces were homogenized on ice. After homogenization, the tissue pieces were centrifuged (10,000 rpm, 4° C., 5 min) and the supernatant was obtained as a protein solution. The concentration of the proteins thus obtained was corrected based on the protein concentration measured by the BCA method using bicinchoninic acid (BCA), thereby preparing samples for Western blotting. Western blotting was quantified using ImageJ to calculate the amount of collagen.

[2] = system: high-fat diet-induced obesity model mice; experiment: H&E staining of mouse tissue; format: in vivo; conditions: metformin 300 mg/kg orally 28 days; compared to control
Experimental: High-fat diet-induced obesity model mice were prepared in the same manner as in Example 7. Note that the high-fat diet-induced obesity model mice develop liver damage and are thus used as a liver disease model. Then, HPH-15 (10 mg/kg or 100 mg/kg, […]) dissolved in olive oil or metformin (300 mg/kg, […]) was orally administered once a day for 28 days. Olive oil alone was administered as a control. After administration of each for 28 days, the liver, epididymis, and muscle of the high-fat diet-induced obesity model mice were stained with H&E and observed using a microscope. The results of H&E staining of the liver are shown in FIG. 12A, the results of H&E staining of the epididymis are shown in FIG. 12B, and the results of H&E staining of the muscle are shown in FIG. 12C.

With CN(C)C(=N)N=C(N)N [metformin, reference compound] the “amount of collagen in the epididymal adipose tissue” value [1] was “no collagen-reducing effect was confirmed”, the “amount of collagen in the liver tissue” value [1] was “no collagen-reducing effect was confirmed” and the “fat area (H&E)” value [2] was “only slightly reduced the fat area”.
